According to PMC8710044 (Biochemical pharmacology, 2021):

How the values were obtained:
[1] = target: CYP3A4 (Homo sapiens, UniProt P08684); experiment: Relative CYP contribution to hepatic bioactivation and detoxification, CYP3A4; type: in vitro ADME; details: for Bioactivation Percent: CYP3A4 contribution to total CLbioact of the NSAID; for Detoxification Percent: CYP3A4 contribution to total CLdetox of the NSAID
[2] = target: CYP2C19 (Homo sapiens, UniProt P33261); experiment: Relative CYP contribution to hepatic bioactivation and detoxification, CYP2C19; type: in vitro ADME; details: for Bioactivation Percent: CYP2C19 contribution to total CLbioact of the NSAID; for Detoxification Percent: CYP2C19 contribution to total CLdetox of the NSAID
CYP2C19, sequence (P33261 whole entry): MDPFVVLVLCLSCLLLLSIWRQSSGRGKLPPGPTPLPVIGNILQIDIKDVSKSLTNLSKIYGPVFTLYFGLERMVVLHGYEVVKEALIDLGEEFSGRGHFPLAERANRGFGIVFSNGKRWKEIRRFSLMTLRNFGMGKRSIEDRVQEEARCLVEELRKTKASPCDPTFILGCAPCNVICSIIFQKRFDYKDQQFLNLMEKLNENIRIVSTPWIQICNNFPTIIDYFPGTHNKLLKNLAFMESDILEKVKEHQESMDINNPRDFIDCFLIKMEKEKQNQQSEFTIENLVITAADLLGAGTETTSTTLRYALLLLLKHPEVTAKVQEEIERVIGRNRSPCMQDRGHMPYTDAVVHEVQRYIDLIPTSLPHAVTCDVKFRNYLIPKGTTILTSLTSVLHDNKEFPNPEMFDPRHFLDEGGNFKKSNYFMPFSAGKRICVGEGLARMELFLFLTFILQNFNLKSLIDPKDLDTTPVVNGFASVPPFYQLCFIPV

[3] = target: CYP2C9 (Homo sapiens, UniProt P11712); experiment: Relative CYP contribution to hepatic bioactivation and detoxification, CYP2C9; type: in vitro ADME; details: for Bioactivation Percent: CYP2C9 contribution to total CLbioact of the NSAID; for Detoxification Percent: CYP2C9 contribution to total CLdetox of the NSAID
[4] = target: T1, CYP2C8 (Homo sapiens, UniProt P10632); experiment: Relative CYP contribution to hepatic bioactivation and detoxification, CYP2C8; type: in vitro ADME; details: for Bioactivation Percent: CYP2C8 contribution to total CLbioact of the NSAID; for Detoxification Percent: CYP2C8 contribution to total CLdetox of the NSAID
T1 sequence (P10632 1-490): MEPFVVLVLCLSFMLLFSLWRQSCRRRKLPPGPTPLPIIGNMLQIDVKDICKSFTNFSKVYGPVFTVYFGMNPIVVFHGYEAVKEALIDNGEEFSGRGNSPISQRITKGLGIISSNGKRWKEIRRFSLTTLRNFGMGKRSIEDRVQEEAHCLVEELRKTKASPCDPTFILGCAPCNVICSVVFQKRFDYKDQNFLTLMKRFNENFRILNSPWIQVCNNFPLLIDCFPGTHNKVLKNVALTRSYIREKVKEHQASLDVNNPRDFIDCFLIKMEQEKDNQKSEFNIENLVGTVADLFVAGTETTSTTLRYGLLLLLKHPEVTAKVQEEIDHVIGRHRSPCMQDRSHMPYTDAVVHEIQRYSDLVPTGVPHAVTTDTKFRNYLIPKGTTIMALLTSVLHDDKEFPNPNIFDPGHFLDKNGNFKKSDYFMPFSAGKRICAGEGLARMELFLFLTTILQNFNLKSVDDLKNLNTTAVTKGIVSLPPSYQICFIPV

[5] = substrate: Cc1ccc(Nc2c(F)cccc2Cl)c(CC(=O)O)c1; experiment: cells, lysate or membranes named; details: other: CYP2C9; adduct Unk; 95% CI in parentheses; pH 7.4
[6] = substrate: Cc1ccc(Cl)c(Nc2ccccc2C(=O)O)c1Cl; experiment: cells, lysate or membranes named; details: other: CYP2C9; metabolite M9, path 4; 95% CI in parentheses; pH 7.4
[7] = substrate: O=C(O)COC(=O)Cc1ccccc1Nc1c(Cl)cccc1Cl; experiment: cells, lysate or membranes named; details: other: CYP2C9, 95% CI in parentheses, pH 7.4
[8] = substrate: Cc1c(Cl)cccc1Nc1ccccc1C(=O)O; experiment: cells, lysate or membranes named; details: other: CYP2C9, path 1, 2, 95% CI in parentheses, pH 7.4
[9] = substrate: Cc1cccc(Nc2ccccc2C(=O)O)c1C; experiment: cells, lysate or membranes named; details: other: CYP2C9, path 1, 2, 95% CI in parentheses, pH 7.4
[10] = substrate: O=C(O)COC(=O)Cc1ccccc1Nc1c(Cl)cccc1Cl; experiment: Steady-state kinetics of overall NSAID metabolism; type: in vitro ADME, human; details: other: overall metabolism (depletion) by CYP2C8; 95% CI in parentheses; pH 7.4
[11] = substrate: Cc1cccc(Nc2ccccc2C(=O)O)c1C; experiment: Steady-state kinetics of overall NSAID metabolism; type: in vitro ADME, human; details: other: overall metabolism (depletion) by CYP2C8; 95% CI in parentheses; pH 7.4
[12] = substrate: O=C(O)COC(=O)Cc1ccccc1Nc1c(Cl)cccc1Cl; experiment: Steady-state bioactivation kinetics; type: in vitro ADME, human; details: other: CYP2C8, 95% CI in parentheses, pH 7.4
[13] = substrate: Cc1cccc(Nc2ccccc2C(=O)O)c1C; experiment: Steady-state bioactivation kinetics; type: in vitro ADME, human; details: other: CYP2C8, path 1, 2, 95% CI in parentheses, pH 7.4

CYP3A4, sequence (P08684 whole entry): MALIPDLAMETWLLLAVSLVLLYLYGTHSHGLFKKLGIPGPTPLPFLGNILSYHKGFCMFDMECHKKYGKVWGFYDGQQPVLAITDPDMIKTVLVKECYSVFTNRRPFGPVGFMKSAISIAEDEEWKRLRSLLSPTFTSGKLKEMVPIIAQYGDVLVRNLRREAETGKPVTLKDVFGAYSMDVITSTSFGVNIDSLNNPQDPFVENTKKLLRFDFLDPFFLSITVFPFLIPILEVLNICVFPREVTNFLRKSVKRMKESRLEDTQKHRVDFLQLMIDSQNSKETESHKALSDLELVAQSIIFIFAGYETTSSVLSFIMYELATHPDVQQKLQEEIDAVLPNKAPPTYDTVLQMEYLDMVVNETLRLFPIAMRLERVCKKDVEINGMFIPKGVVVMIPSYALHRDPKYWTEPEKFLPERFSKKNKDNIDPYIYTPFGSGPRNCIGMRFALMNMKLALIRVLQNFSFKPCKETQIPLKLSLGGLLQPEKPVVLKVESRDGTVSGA

Molecule	Bioactivation Percent [1] [%]	Detoxification Percent [1] [%]	Bioactivation Percent [2] [%]	Detoxification Percent [2] [%]	Bioactivation Percent [3] [%]	Detoxification Percent [3] [%]	further results
Cc1ccc(Nc2c(F)cccc2Cl)c(CC(=O)O)c1 [LUM, lumiracoxib]	3.7	68.0	0.5	8.6	95.8	23.4	
Cc1ccc(Cl)c(Nc2ccccc2C(=O)O)c1Cl [MEC, meclofenamic acid]	24.7	61.6	19.6	1.9	55.7	36.5	
O=C(O)c1ccccc1Nc1cccc(C(F)(F)F)c1 [FLU, flufenamic acid]	55.9	69.0	1.7	3.4	42.3	27.6	
Cc1cccc(Nc2ccccc2C(=O)O)c1C [MEF, mefenamic acid]	6.0	56.4	1.2	2.1	91.4	36.9	Bioactivation Percent [4]: 1.4%; Detoxification Percent [4]: 4.6%
Cc1c(Cl)cccc1Nc1ccccc1C(=O)O [TOL, tolfenamic acid]	25.2	60.9	2.0	3.6	72.8	35.5	
O=C(O)COC(=O)Cc1ccccc1Nc1c(Cl)cccc1Cl [ACE, aceclofenac]	1.2	60.4	2.0	1.6	94.3	30.7	Bioactivation Percent [4]: 2.5%; Detoxification Percent [4]: 7.3%
CYP2C9 (Homo sapiens) (protein) MDSLVVLVLCLSCLLLLSLWRQSSGRGKLPPGPTPLPVIGNILQIGIKDISKSLTNLSKVYGPVFTLYFGLKPIVVLHGYEAVKEALIDLGEEFSGRGIFPLAERANRGFGIVFSNGKKWKEIRRFSLMTLRNFGMGKRSIEDRVQEEARCLVEELRKTKASPCDPTFILGCAPCNVICSIIFHKRFDYKDQQFLNLMEKLNENIKILSSPWIQICNNFSPIIDYFPGTHNKLLKNVAFMKSYILEKVKEHQESMDMNNPQDFIDCFLMKMEKEKHNQPSEFTIESLENTAVDLFGAGTETTSTTLRYALLLLLKHPEVTAKVQEEIERVIGRNRSPCMQDRSHMPYTDAVVHEVQRYIDLLPTSLPHAVTCDIKFRNYLIPKGTTILISLTSVLHDNKEFPNPEMFDPHHFLDEGGNFKKSKYFMPFSAGKRICVGEALAGMELFLFLTSILQNFNLKSLVDPKNLDTTPVVNGFASVPPFYQLCFIPV							Km [5]: 27.0 (22.4–32.3) μM; kcat [5]: 23.5 (22.5–24.5) pmol/min/nmol protein; Km [6]: 5.5 (4.3–7.1) μM; kcat [6]: 5.2 (5.0–5.4) pmol/min/nmol protein; Km ([7]; adduct Unk): 7.9 (5.8–10.7) μM; kcat ([7]; adduct Unk): 10.2 (9.7–10.9) pmol/min/nmol protein; Km ([7]; metabolite M9, path 4): 23.8 (19.4–28.9) μM; kcat ([7]; metabolite M9, path 4): 68.5 (65.0–72.2) pmol/min/nmol protein; Km ([8]; metabolite M2/M4a): 6.5 (5.2–8.0) μM; kcat ([8]; metabolite M2/M4a): 15.2 (14.6–15.9) pmol/min/nmol protein; Km ([8]; metabolite M2/M4b): 6.9 (5.8–8.8) μM; kcat ([8]; metabolite M2/M4b): 16.1 (15.6–16.7) pmol/min/nmol protein; Km ([9]; metabolite M2/M4a): 17.5 (13.4–22.7) μM; kcat ([9]; metabolite M2/M4a): 25.6 (24.2–27.0) pmol/min/nmol protein; Km ([9]; metabolite M2/M4b): 12.9 (10.1–16.5) μM; kcat ([9]; metabolite M2/M4b): 35.7 (34.0–37.4) pmol/min/nmol protein
CYP2C8 (Homo sapiens) (protein) MEPFVVLVLCLSFMLLFSLWRQSCRRRKLPPGPTPLPIIGNMLQIDVKDICKSFTNFSKVYGPVFTVYFGMNPIVVFHGYEAVKEALIDNGEEFSGRGNSPISQRITKGLGIISSNGKRWKEIRRFSLTTLRNFGMGKRSIEDRVQEEAHCLVEELRKTKASPCDPTFILGCAPCNVICSVVFQKRFDYKDQNFLTLMKRFNENFRILNSPWIQVCNNFPLLIDCFPGTHNKVLKNVALTRSYIREKVKEHQASLDVNNPRDFIDCFLIKMEQEKDNQKSEFNIENLVGTVADLFVAGTETTSTTLRYGLLLLLKHPEVTAKVQEEIDHVIGRHRSPCMQDRSHMPYTDAVVHEIQRYSDLVPTGVPHAVTTDTKFRNYLIPKGTTIMALLTSVLHDDKEFPNPNIFDPGHFLDKNGNFKKSDYFMPFSAGKRICAGEGLARMELFLFLTTILQNFNLKSVDDLKNLNTTAVTKGIVSLPPSYQICFIPV							Km [10]: 110 (96–130) μM; kcat [10]: 1740 (1640–1850) pmol/min/nmol protein; Km [11]: 160 (140–190) μM; kcat [11]: 2390 (2230–2560) pmol/min/nmol protein; Km ([12]; metabolite M2/M4, path 1, 2): 6.3 µM; kcat ([12]; metabolite M2/M4, path 1, 2): 1.4 (1.3–1.5) pmol/min/nmol protein; Km ([12]; metabolite M6, path 3): 9.4 µM; kcat ([12]; metabolite M6, path 3): 4.0 (3.9–4.1) pmol/min/nmol protein; Km ([12]; metabolite M9, path 4): 6.7 µM; kcat ([12]; metabolite M9, path 4): 1.7 (1.6–1.8) pmol/min/nmol protein; Km ([13]; metabolite M2/M4a): 51.9 µM; kcat ([13]; metabolite M2/M4a): 5.6 (5.5–5.8) pmol/min/nmol protein; Km ([13]; metabolite M2/M4b): 75.6 µM; kcat ([13]; metabolite M2/M4b): 5.4 (5.2–5.5) pmol/min/nmol protein
